Laboratory results reported in patent US20120046276A1, “Tuberculosis treatment using pleuromutilin derivatives” (priority 2002, published 2012).
Values after ≈ are worked out from the molar mass of the structure shown. Values joined by “and” are separate entries in the source; they are usually repeats but may differ in a detail not shown here. Equal entries are not always repeated. Where two headings read alike, the source gives them in different places.

Assays:
Type in all cases: cell-based
[1] = tested on: Mycobacterium tuberculosis strain 1; assay: Agar Dilution Test (MIC), strain 1 (Isoniacid S, Rifampicin S, Streptomycin S); details: read-out: MIC against Mycobacterium tuberculosis of strain number 1
[2] = tested on: Mycobacterium tuberculosis strain 15 (labor strain 137 kV); assay: Agar Dilution Test (MIC), strain 15 = labor strain 137 kV (Isoniacid S, Rifampicin S, Streptomycin S)
[3] = tested on: Mycobacterium tuberculosis strain 12; assay: Agar Dilution Test (MIC), strain 12 (Isoniacid S, Rifampicin S, Streptomycin S)
[4] = tested on: Mycobacterium tuberculosis strain 2; assay: Agar Dilution Test (MIC), strain 2 (Isoniacid S, Rifampicin S, Streptomycin S)
[5] = tested on: Mycobacterium tuberculosis strain 3; assay: Agar Dilution Test (MIC), strain 3 (Isoniacid R, Rifampicin R, Streptomycin S)
[6] = tested on: Mycobacterium tuberculosis strain 6; assay: Agar Dilution Test (MIC), strain 6 (Isoniacid S, Rifampicin S, Streptomycin S)
[7] = tested on: Mycobacterium tuberculosis strain 7; assay: Agar Dilution Test (MIC), strain 7 (Isoniacid R, Rifampicin S, Streptomycin R)
[8] = tested on: Mycobacterium tuberculosis strain 4; assay: Agar Dilution Test (MIC), strain 4 (Isoniacid R, Rifampicin R, Streptomycin R)
[9] = tested on: Mycobacterium tuberculosis strain 14; assay: Agar Dilution Test (MIC), strain 14 (Isoniacid S, Rifampicin S, Streptomycin S)
[10] = tested on: Mycobacterium tuberculosis strain 13; assay: Agar Dilution Test (MIC), strain 13 (Isoniacid S, Rifampicin S, Streptomycin S)
[11] = tested on: Mycobacterium tuberculosis strain 5; assay: Agar Dilution Test (MIC), strain 5 (Isoniacid R, Rifampicin R, Streptomycin S)
[12] = tested on: Mycobacterium tuberculosis strain 8; assay: Agar Dilution Test (MIC), strain 8 (Isoniacid S, Rifampicin R, Streptomycin S)
[13] = tested on: Mycobacterium tuberculosis strain 11; assay: Agar Dilution Test (MIC), strain 11 (Isoniacid S, Rifampicin S, Streptomycin S)
[14] = tested on: Mycobacterium tuberculosis strain 10; assay: Agar Dilution Test (MIC), strain 10 (Isoniacid S, Rifampicin S, Streptomycin S)
[15] = Mycobacterium tuberculosis, 1, 336 h
[16] = Mycobacterium tuberculosis, 1, 504 h
[17] = Mycobacterium tuberculosis, 1, 672 h
[18] = Mycobacterium tuberculosis, 1, 840 h
[19] = TABLE C; week 4*) tested after 31 days
[20] = TABLE D; week 4*) tested after 31 days
[21] = Mycobacterium tuberculosis, 1, 168 h

SMILES	MIC against Mycobacterium tuberculosis of strain number 15 [2]	MIC against Mycobacterium tuberculosis of strain number 12 [3]	MIC against Mycobacterium tuberculosis of strain number 2 [4]	MIC [1, 16] [µg/mL]	MIC [1, 17] [µg/mL]	MIC [1, 18] [µg/mL]	MIC against Mycobacterium tuberculosis of strain number 3 [5] [µg/mL]	MIC against Mycobacterium tuberculosis of strain number 6 [6]	MIC against Mycobacterium tuberculosis of strain number 7 [7]	MIC against Mycobacterium tuberculosis of strain number 4 [8]	MIC [1, 21] [µg/mL]	also measured
C=C[C@]1(C)C[C@@H](OC(=O)CSc2cccc(NC(=N)N)c2)[C@]2(C)C(C)CCC3(CCC(=O)C32)[C@@H](C)C1O (stereo partly drawn) [TC-6]	0.5 µg/mL	1 µg/mL										MIC [1, 15]: 1 µg/mL (≈ 1.89 µM)
C=C[C@]1(C)C[C@@H](OC(=O)CSc2cccc(NC(=O)C3CCCCN3)c2)[C@]2(C)C(C)CCC3(CCC(=O)C32)[C@@H](C)C1O (stereo partly drawn) [TC-3]			5 µg/mL	1 (≈ 1.68 µM)	1 (≈ 1.68 µM)	1 (≈ 1.68 µM)	5	5 µg/mL and 10 µg/mL	20 µg/mL			
C=C[C@]1(C)C[C@@H](OC(=O)CSC(C)(C)CNC(=O)[C@H](N)C(C)C)[C@]2(C)[C@H](C)CC[C@]3(CCC(=O)[C@H]32)[C@@H](C)[C@@H]1O [TC-2, Valnemulin]	2 µg/mL	4 µg/mL		0.5 (≈ 0.885 µM)	0.5 (≈ 0.885 µM)	0.5 (≈ 0.885 µM)		5 µg/mL and 4 µg/mL		5 µg/mL and 8 µg/mL		MIC against Mycobacterium tuberculosis of strain number 4 [8, 19]: 8 µg/mL; MIC against Mycobacterium tuberculosis of strain number 14 [9]: 4 µg/mL; MIC against Mycobacterium tuberculosis of strain number 14 [9, 20]: 4 µg/mL; MIC against Mycobacterium tuberculosis of strain number 2 [4, 19]: 4 µg/mL; MIC against Mycobacterium tuberculosis of strain number 13 [10]: 4 µg/mL; MIC against Mycobacterium tuberculosis of strain number 13 [10, 20]: 8 µg/mL; MIC ([1]; Mycobacterium tuberculosis, 1, 744 h, TABLE C; week 4*) tested after 31 days): 0.5 µg/mL (≈ 0.885 µM); MIC against Mycobacterium tuberculosis of strain number 5 [11]: 2 µg/mL; MIC against Mycobacterium tuberculosis of strain number 5 [11, 19]: 4 µg/mL; MIC against Mycobacterium tuberculosis of strain number 15 [2, 20]: 4 µg/mL; MIC against Mycobacterium tuberculosis of strain number 8 [12]: 4 µg/mL; MIC against Mycobacterium tuberculosis of strain number 8 [12, 19]: 8 µg/mL; MIC against Mycobacterium tuberculosis of strain number 12 [3, 20]: 4 µg/mL; MIC against Mycobacterium tuberculosis of strain number 3 [5, 19]: 2 µg/mL; MIC against Mycobacterium tuberculosis of strain number 11 [13]: 2 µg/mL; MIC against Mycobacterium tuberculosis of strain number 11 [13, 20]: 4 µg/mL; MIC against Mycobacterium tuberculosis of strain number 10 [14]: 4 µg/mL; MIC against Mycobacterium tuberculosis of strain number 10 [14, 20]: 4 µg/mL; MIC against Mycobacterium tuberculosis of strain number 6 [6, 19]: 4 µg/mL; MIC against Mycobacterium tuberculosis of strain number 7 [7, 19]: 8 µg/mL
C=C[C@]1(C)C[C@@H](OC(=O)CSc2cccc(NC(=O)C(N)CCCNC(=N)N)c2)[C@]2(C)C(C)CCC3(CCC(=O)C32)[C@@H](C)C1O (stereo partly drawn) [TC-5]			5 µg/mL	1 (≈ 1.56 µM)	5 (≈ 7.79 µM)	5 (≈ 7.79 µM)	5	5 µg/mL and 10 µg/mL	5 µg/mL and 10 µg/mL	5 µg/mL and 10 µg/mL		
C=C[C@]1(C)C[C@@H](OC(=O)CSC2CCCC(=NO)C2)[C@]2(C)C(C)CCC3(CCC(=O)C32)[C@@H](C)C1O (stereo partly drawn) [TC-9]	32 µg/mL	32 µg/mL									8 (≈ 15.8 µM)	
C=C[C@]1(C)C[C@@H](OC(=O)CSC2CCNCC2O)[C@]2(C)C(C)CCC3(CCC(=O)C32)[C@@H](C)C1O (stereo partly drawn) [TC-10]	4 µg/mL	16 µg/mL										MIC [1, 15]: 2 µg/mL (≈ 4.05 µM)
C=C[C@]1(C)C[C@@H](OC(=O)CSC2CCCN(C(=O)C(N)C(C)C)C2)[C@]2(C)C(C)CCC3(CCC(=O)C32)[C@@H](C)C1O (stereo partly drawn) [TC-4]	4 µg/mL and 2 µg/mL	4 µg/mL and 2 µg/mL	5 µg/mL and 4 µg/mL	0.5 (≈ 0.867 µM)	1 (≈ 1.73 µM)	1 (≈ 1.73 µM)		5 µg/mL and 4 µg/mL				MIC against Mycobacterium tuberculosis of strain number 14 [9]: 4 µg/mL; MIC against Mycobacterium tuberculosis of strain number 13 [10]: 4 µg/mL and 2 µg/mL; MIC against Mycobacterium tuberculosis of strain number 5 [11]: 2 µg/mL; MIC against Mycobacterium tuberculosis of strain number 8 [12]: 4 µg/mL and 2 µg/mL; MIC against Mycobacterium tuberculosis of strain number 11 [13]: 2 µg/mL; MIC against Mycobacterium tuberculosis of strain number 10 [14]: 4 µg/mL and 2 µg/mL
C=C[C@]1(C)C[C@@H](OC(=O)CSC(C)(C)C(N)C(=O)NC)[C@]2(C)C(C)CCC3(CCC(=O)C32)[C@@H](C)C1O (stereo partly drawn) [TC-7]	32 µg/mL	32 µg/mL									2 (≈ 3.83 µM)	
C=C[C@]1(C)C[C@@H](OC(=O)CSCCN(CC)CC)[C@]2(C)C(C)CC[C@]3(CCC(=O)C32)[C@@H](C)[C@@H]1O (stereo partly drawn) [TC-1, 14-Desoxy-14[(2-diethylaminoethyl)mercaptoacetoxy]mutilin]			5 µg/mL	5 (≈ 10.1 µM)	5 (≈ 10.1 µM)	5 (≈ 10.1 µM)	5	10 µg/mL	10 µg/mL and 20 µg/mL	5 µg/mL and 10 µg/mL		
C=C[C@]1(C)C[C@@H](OC(=O)CSC(C)(C)C(N)C(=O)N2CCN(C)CC2)[C@]2(C)C(C)CCC3(CCC(=O)C32)[C@@H](C)C1O (stereo partly drawn) [TC-8]	32 µg/mL	32 µg/mL									2 (≈ 3.38 µM)	
